According to US10401793B2, “Digital holographic method of measuring cellular activity and measuring apparatus with improved stability” (PURDUE RESEARCH FOUNDATION, priority 2010, dated 2019):
“Also recorded” adds a separate entry of the source. Where two headings read alike, the source gives them in different places.

What was measured:
Type in all cases: cell-based
[1] = tested on: Rat osteogenic sarcoma tumor spheroids; assay: Speckle fluctuation spectroscopy: differential spectrograms (normalized spectral difference) of living tumor spheroids by coherence-gated digital holography
Text: The set-up includes several mirrors M; a neutral density filter ND, two polarizing beam splitters PBS, a beam splitter BS, three lenses L1-L3, a half-wave plate λ/2, a quarter-wave plate λ/4, a Fourier plane FP, and a sample or target T. A mode-locked Ti:sapphire laser (100 fs pulse duration, 100 MHz repetition rate) was used with a center wavelength of 840 nm and a bandwidth of 17 nm. The lenses L1 and L2 expanded a reference beam, and the lens L3 performed the Fourier transform of the object beam. The CCD camera was placed at the Fourier plane of the object, where the object beam interfered with the zero-path-matched reference beam that passed through the computer-controlled delay line. The typical object intensity for living tissue at the object plane was 5 mW/mm^2, and an 8-bit CCD camera with one mega-pixel resolution was used with an exposure time of 10 msec. Digital holograms were reconstructed by Fast Fourier transform (FFT).
Rat osteogenic sarcoma tumor spheroids were used as the target tissue samples. Multicellular tumor spheroids have approximately spherical geometry that facilitates comparison of structure to function. As tumor spheroids are cultured in a rotating bioreactor, they undergo cell apoptosis or necrosis in their center and so consist of an inner necrotic core surrounded by an outer proliferating shell with a 100 to 200 μm thickness. A typical pseudo B-scan image is shown in FIG. 20, which is produced from 3D holographic images of an 800-μm-diameter rat tumor spheroid.
To capture dynamic speckle, 200 successive digital holograms were acquired at a fixed depth shown as a dashed line in FIG. 20. The time interval between holograms was selected to be 0.1 second. Examples of dynamic speckle are shown in FIG. 21A for a healthy rat tumor spheroid with a 600 μm diameter. […] The horizontal axis is the spatial axis and time is vertical. […] A “healthy” tumor is one that has been removed from the bioreactor and maintained in growth medium at room temperature for no more than 24 hours.
For tissue responding to stimuli, such as temperature and osmolarity changes or response to drugs, the key property of the spectral power density is its relative change in response to the stimulus. The normalized spectral difference for a time series is given by
[formula] where S0 (ω,t 0) is the starting spectral power density at the beginning time t0 of the experiment, and S(ω, t) is the time development of the spectral power density. The normalized power spectrum as a function of frequency of a 450-μm-diameter tumor responding to a dose of 1 μg/ml of nocodazole, an anti-tubulin cytoskeletal drug, is shown in FIG. 21C at selected times after the application of the drug. The associated normalized differential relative spectral change is shown in FIG. 21D as a function of time for the selected frequencies.
The tissue response contained in D(ω, t) can be represented as a spectrogram, showing the relative change in the spectrum as a function of time. These spectrograms track the changes of the intra-cellular motion in living tumors responding to temperature changes, osmolarity changes, and to nocodazole. The spectral difference in response to changes in temperature is shown in FIG. 22A as the temperature increased from 24° C. to 37° C. and then decreased to 24° C. The lower frequencies show weak suppression with increasing temperature, while the upper frequencies show significant enhancement at the highest temperature.
The drug-response spectrograms are defined by the differential relative spectral density as D(ω, t)=[S(ω, t)−S(ω, t0)]/S (ω, t0) where the spectrum at time t is related to and normalized by the spectrum at time to before the application of the perturbation or dose. The normalization is essential, because the spectral power density has general 1/f behavior, and the high frequency amplitudes are much smaller than the low frequency amplitudes. […]

tumor spheroids = assay: Motility contrast imaging (motility metric, dynamic speckle) of tumor spheroids; settings: for dose-response plotted as a reaction velocity (suppression of cellular motion): FIG. 13D, comparison of Nocodazole, Colchicine, Taxol
Protocol: To create tumor spheroids for our studies, two different cell lines were used: rat osteogenic sarcoma UMR-106 cells, and human liver carcinoma Hep G2 cells. These were cultured in a rotating bioreactor (Synthecon, Houston, Tex.) where they were maintained in suspension. The spheroids may be grown up to a mm in diameter. An advantage to using this continuous culture model is that fresh spheroids of varying size are easily prepared on a daily basis.
Motility contrast imaging relies on dynamic light scattering combined with coherence gating. […] The data are the reconstructed pixel intensities plotted on a dB reflectance scale. The tumor in FIG. 9A was “healthy” while the tumor in FIG. 9B had been crosslinked with glutaraldehyde. […] The vertical axis is frame number at a rate of one frame per second.
Among the several possible ways to define a motility metric, one particularly robust approach simply calculates the coefficient of variance (known as the CV or as the normalized standard deviation) of a pixel value (after background subtraction) as a property related to the cellular and subcellular motion. The motility metric for individual pixels is plotted in FIG. 11 at nine selected depths inside a healthy tumor. The depths starting in the upper-left are 60 μm, 120 μm, 180 μm, 260 μm, 330 μm, 390 μm, 460 μm, 530 μm and 600 μm, respectively. The first frame is near the top of the tumor, while the central frame is near the center plane of the tumor. In the central plane there is a strong contrast between the healthy shell and necrotic core. […] These images correlate with the known structure of the tumor spheroids with a healthy outer shell and a necrotic core. In these images, the internal motions of the cells themselves have provided the imaging contrast agent. This is a truly endogenous functional imaging approach (i.e. without additional labeling or contrast agents).
Armed with the motility metric and the maps of cellular motion, it is possible to image the effects of anti-mitotic drugs (AMD) on the motility images. A time series at a fixed depth is shown in FIG. 12 for Nocodazole, which is an antimitotic drug (AMD) that inhibits the polymerization of tubulin into microtubules. The first frame is the initial state of the tumor. […] Nocodazole inhibits the polymerization of the microtubules, while treadmilling dissolves the microtubules from the other end, resulting in a significant reduction in the microtubule density within the cells. Without the microtubule cytoskeleton, organelle transport is suppressed, which is captured by the dynamic light scattering.

[2] = tested on: tumor spheroid (healthy shell and necrotic core); assay: Heterodyne autocorrelation function of depth-gated speckle (correlation time, NSD) of a tumor spheroid; settings: 10 minutes after 10 μg/ml cytochalasin D
Text: In living tissue, the speckle is dynamic, caused by motion of cellular membranes and by intracellular organelles, coupled with the optical channel cross-talk caused by multiple scattering. […] We previously studied the effects of anti-mitotic drugs on tumor spheroids using optical coherence imaging, and defined motility metrics from the autocorrelation functions of the depth-gated pixel fluctuations. The resulting motility contrast imaging (MCI) is fully endogenous, responding to the dynamic functions of cellular processes. The autocorrelation function is a first-order heterodyne function because the holography uses a reference wave (the coherence gate) that captures the real and imaginary part of the fluctuating field as the coherence-gated pixel number Id^(1) (t) to yield the autocorrelation function A^(1)(τ)= ? id^(1)(0)id^(1)(τ) ? ∝ILO^2+2ILORE {I^(1)(τ)} where τ is the time delay among an ensemble of images, and I^(1), (τ) is the heterodyne correlation function. Two motility metrics can be defined from the heterodyne correlation function. They are the decay time, and the normalized standard deviation, given by
An ensemble consists of 40 images taken with a frame rate of 1 per second. […] […].

COc1cc2c(c(OC)c1OC)-c1ccc(OC)c(=O)cc1[C@@H](NC(C)=O)CC2 [Colchicine]
high-frequency organelle activity, core-shell comparison [1]: appears only in the healthy shell and not in the core
spectrogram fingerprint [1]: significant enhancement of lower frequencies

COC(=O)Nc1nc2ccc(C(=O)c3cccs3)cc2[nH]1 [Nocodazole]
normalized spectral difference, middle frequency range between 0.02 Hz to 1 Hz ([1]; 1 μg/ml nocodazole): very strong suppression in motion
normalized spectral difference, ultra-low frequency below 0.01 Hz ([1]; 1 μg/ml nocodazole): enhancement
normalized differential relative spectral change as a function of time at selected frequencies ([1]; 1 μg/ml nocodazole, 450-μm-diameter tumor, proliferating shell): higher frequencies change relatively less than the lower frequencies
spectrogram fingerprint ([1]; dose of 1 μg/ml, FIG. 34A-34D): significant enhancement of lower frequencies
motility (activity) of the outer shell, motility maps (tumor spheroids; 2 μg/ml Nocodazole, 3 minutes after application, fixed depth): increased its activity by a small amount
motility (motion) of the outer shell, motility maps (tumor spheroids; 2 μg/ml Nocodazole, 21 minutes): partially suppressed
motility (motion) of the outer shell, motility maps (tumor spheroids; 2 μg/ml Nocodazole, 50 minutes): further suppressed
motility (motion) of the outer shell, motility maps (tumor spheroids; 2 μg/ml Nocodazole, 79 minutes): further suppressed
motility in the outer shell, motility maps (tumor spheroids; 2 μg/ml Nocodazole, 119 minutes after application): significantly reduced
dose-response plotted as a reaction velocity (suppression of cellular motion) (tumor spheroids): strongest suppression of cellular motion at the lowest effective concentrations

CC(=O)O[C@H]1C(=O)[C@@]2(C)[C@H]([C@H](OC(=O)c3ccccc3)[C@]3(O)C[C@H](OC(=O)[C@H](O)[C@@H](NC(=O)c4ccccc4)c4ccccc4)C(C)=C1C3(C)C)[C@]1(OC(C)=O)CO[C@@H]1C[C@@H]2O [Taxol, Paclitaxel]
spectrogram fingerprint ([1]; dose of 1 μg/ml, FIG. 34A-34D): only a weak change
high-frequency organelle activity, core-shell comparison ([1]; shell versus core spectrograms): appears only in the healthy shell and not in the core
suppression of the motility, time evolution under different doses (tumor spheroids; FIG. 13A-13C): significantly smaller suppression of the motility
dose-response plotted as a reaction velocity (suppression of cellular motion) (tumor spheroids): weakest effect

C=C1[C@@H](C)[C@H]2[C@H](Cc3ccccc3)NC(=O)[C@]23[C@H](OC(C)=O)/C=C/[C@@](C)(O)C(=O)[C@@H](C)C/C=C/[C@H]3[C@@H]1O [cytochalasin D]
relative power spectral density, middle-frequency fluctuations, shell ([1]; 50 μg/ml cytochalasin D at room temperature, 10 μg/ml at physiological temperature): enhanced
spectrogram fingerprint ([1]; dose of 1 μg/ml, FIG. 34A-34D): enhancement of the mid-frequencies for about 2 hours after application of the drug, followed by a shift of the spectral weight to lower frequencies
high-frequency organelle activity, core-shell comparison ([1]; shell versus core spectrograms): appears only in the healthy shell and not in the core; also recorded: appears strongly only in the shell and not in the core
brightness change of the healthy shell [2]: 6%
brightness change of the necrotic core [2]: becomes dimmer
correlation time, healthy shell ([2]; before dose 4.6 sec): 7.2 s

O=CCCCC=O [glutaraldehyde]
dynamic speckle at fixed depth (tumor spheroids; tumor crosslinked with glutaraldehyde, depth about 300 microns, one frame per second): static speckle

O=C(O)CI [iodoacetate]
oscillations in the spectrogram, shell and core [1]: induces oscillations in the mid-to-low frequency range
spectrogram of the shell, high frequencies associated with organelle transport [1]: strong increase
